What is called melting point is the temperature, or range, at which the solid turns liquid.

Compound `CS(=O)(=O)Nc1cccc(C(=O)N2CCC(N3CCC(Oc4ccc(Cl)c(Cl)c4)CC3)CC2)c1` [Compound 583 of Table I, N-{3-[4-(3,4-dichloro-phenoxy)-[1,4′]bipiperidinyl-1′-carbonyl]-phenyl}-methanesulfonamide] returned a melting point of 150 to 152 °C. `CS(=O)(=O)n1cc(C(=O)N2CCC(N3CCC(Oc4ccc(Cl)c(Cl)c4)CC3)CC2)c2ccccc21.Cl` registered a melting point of 104 to 105 °C. As to `CS(=O)(=O)c1ccccc1C(=O)N1CCC(N2CCC(Oc3ccc(Cl)c(Cl)c3)CC2)CC1` [Compound 293 of Table I, [4-(3,4-dichloro-phenoxy)-[1,4′]bipiperidinyl-1′-yl]-(2-methanesulfonyl-phenyl)-methanone], the melting point was 78 to 80 °C. Compound `O=C(Nc1ccccc1)N1CCC(N2CCC(Oc3ccc(Cl)c(Cl)c3)CC2)CC1` [Compound 309 of Table IV, 4-(3,4-dichloro-phenoxy)-[1,4′]bipiperidinyl-1′-carboxylic acid phenylamide] returned a melting point of 111 to 112 °C.

Take `CC(=O)O.COc1cc(C(=O)N2CCC(N3CCC(Oc4ccc(Cl)c(Cl)c4)CC3)CC2)ccc1N`: the melting point lay within 181 to 182 °C. The compound `CS(=O)(=O)c1cccc(NC(=O)N2CCC(N3CCC(Oc4ccc(Cl)c(Cl)c4)CC3)CC2)c1` [Compound 54 of Table IV, 4-(3,4-dichloro-phenoxy)-[1,4′]bipiperidinyl-1′-carboxylic acid (3-methanesulfonyl-phenyl)-amide] registered a melting point of 73 to 75 °C. `O=S(=O)(c1ccc(-c2ccccn2)s1)N1CCC(N2CCC(Oc3ccc(Cl)c(Cl)c3)CC2)CC1` [Compound 280 of Table I, 4-(3,4-dichloro-phenoxy)-1′-(5-pyridin-2-yl-thiophene-2-sulfonyl)-[1,4′]bipiperidinyl] returned a melting point of 149 to 150 °C.

In turn, `CS(=O)(=O)c1ccc(C(=O)N2CCC(N3CCC(Oc4ccc(Cl)c(Cl)c4)CC3)CC2)s1` [Compound 332 of Table I, [4-(3,4-dichloro-phenoxy)-[1,4′]bipiperidinyl-1′-yl]-(2-methanesulfonyl-thiophen-5-yl)-methanone] yielded a melting point of 82 to 83 °C. Regarding `COc1cc(C(=O)N2CCC(N3CCC(Oc4ccc(Cl)cc4C)CC3)CC2)ccc1N.O=C(O)C(F)(F)F.O=C(O)C(F)(F)F`, the melting point is 110 to 111 °C.

In the case of `CC(=O)O.CS(=O)(=O)c1cccc(C(=O)N2CCC(N3CCC(Oc4ccc(Cl)c(Cl)c4)CC3)CC2)c1`, the melting point was in the range of 111 to 112 °C. `Cc1cccc(OC2CCN(C3CCN(C(=O)c4cccc(S(C)(=O)=O)c4)CC3)CC2)n1.O=C(O)C(F)(F)F` came in with a melting point of 94 to 95 °C.

In turn, `CS(=O)(=O)c1cccc(C(=O)N2CCC(N3CCC(Oc4ccc(C(F)(F)F)cc4C#N)CC3)CC2)c1.O=C(O)C(F)(F)F` gave a melting point of 140 to 142 °C.

`O=S(=O)(c1ccc(-c2ccccn2)s1)N1CCC(N2CCC(Oc3ccc(F)c(F)c3)CC2)CC1` [Compound 3 of Table II, 4-(3,4-difluoro-phenoxy)-1′-(5-pyridin-2-yl-thiophene-2-sulfonyl)-[1,4′]bipiperidinyl] displayed a melting point of 126 to 127 °C. For `CCn1cc(C(=O)N2CCC(N3CCC(Oc4ccc(Cl)c(Cl)c4)CC3)CC2)c(=O)c2ccc(C)nc21` [Compound 534 of Table I, 3-[4-(3,4-dichloro-phenoxy)-[1,4′]bipiperidinyl-1′-carbonyl]-1-ethyl-7-methyl-1H-[1,8]naphthyridin-4-one] the value was 189 to 190 °C. With `CS(=O)(=O)Nc1ccccc1C(=O)N1CCC(N2CCC(Oc3ccc(Cl)c(Cl)c3)CC2)CC1` [Compound 587 of Table I, N-{2-[4-(3,4-dichloro-phenoxy)-[1,4′]bipiperidinyl-1′-carbonyl]-phenyl}-methanesulfonamide], the melting point was in the range of 219 to 220 °C. For `O=C(C(CN1CCNCC1)c1ccccc1)N1CCC(N2CCC(Oc3ccc(Cl)c(Cl)c3)CC2)CC1` (centres unmarked) [Compound 595 of Table I, 1-[4-(3,4-dichloro-phenoxy)-[1,4′]bipiperidinyl-1′-yl]-2-phenyl-3-piperazin-1-yl-propan-1-one], the melting point was 76 to 77 °C. As for `Cc1cc(Cl)ccc1OC1CCN(C2CCN(C(=O)c3cccc(S(C)(=O)=O)c3)CC2)CC1` [Compound 1 of Table IV, [4-(4-chloro-2-methyl-phenoxy)-[1,4′]bipiperidinyl-1′-yl]-(3-methanesulfonyl-phenyl)-methanone], the melting point was 64 to 65 °C.

For the origin of these results see patent US6525070B2, “Bipiperidine derivatives as modulators of CCR3 activity and as H1 antagonists” (AstraZeneca AB, priority 2000, dated 2003).
